Experimental data: patent US10945992B1, “Dosage forms of rofecoxib and related methods” (Tremeau Pharmaceuticals, Inc., priority 2019, dated 2021)
Where two headings read alike, the source gives them in different places.

How the values were obtained:
COX-2 = COX-2 (Homo sapiens, UniProt P35354); conditions: at therapeutic concentrations; cited from earlier work
[1] = cited from earlier work
[2] = LC-MS/MS method validation: stability of rofecoxib; assay type: physicochemical, human
From the text: In order to support clinical studies with TRM-201 (rofecoxib), a method was developed for the determination of rofecoxib in human plasma by LC-MS/MS. This method was validated in accordance with the FDA Good Laboratory Practice Regulations (GLP) as set forth in Title 21 of the U S. Code of Federal Regulations Part 58 as well as FDA Guidance for Industry: Bioanalytical Method Validation, May 2018.

[3] = 101 and 102 PK studies combined (fasted); assay type: in vivo; conditions: human, plasma, oral; for half-life: read-out: median t1/2 (converted)
From the text: The primary analysis model for data from this trial included data from this trial and that from the 25-mg dose from TRM-201-PK-101 (fasted results only), which were combined via mixed model repeated measures analysis (MMRM) in order to maximize the precision of the estimates. An MMRM analysis on natural log scale was simulated for the 25-mg dose (N=50) data using the between-subject SD of 0.31 from TRM-201-PK-101 and for the estimated 25-mg and 20-mg data that N=20 subjects were expected to yield in this study. The purpose of this simulation was to estimate the SD for the least squares natural log scale mean for the 20-mg dose. […] The subject effect data expected for this study was simulated from the back-calculated variance of the between-subject mean effect (Var (between-subject-mean)=SDbetween^2−SDwithin^2). For the maximum between- and within-SB's 0.31 and 0.12, 1000 simulations yielded an effective SD of 0.21 for the least squares mean of 20 mg, which was used for the following power calculations.
The arithmetic mean AUC0-∞ for 12.5 mg of TRM-201 is 2010 ng·hr/mL. The geometric mean AUC0-∞ for 12.5 mg of TRM-201 is 1880 ng·hr/mL. The arithmetic mean AUC0-∞ for 17.5 mg of TRM-201 is 3290 ng·hr/mL. The geometric mean AUC0-∞ for 17.5 mg of TRM-201 is 3110 ng·hr/mL. The arithmetic mean AUC0-∞ for 20 mg of TRM-201 is 3750 ng·hr/mL. The geometric mean AUC0-∞ for 20 mg of TRM-201 is 3550 ng·hr/mL. The arithmetic mean AUC0-∞ for 25 mg of TRM-201 is 4810 ng·hr/mL. The geometric mean AUC0-∞ for 25 mg of TRM-201 is 4590 ng·hr/mL.
The median time at which the Cmax is observed (Tmax) for 12.5 mg of TRM-201 is 2.00 hours. The median Tmax for 17.5 mg of TRM-201 is 2.00 hours. The Tmax for 20 mg of TRM-201 is 2.00 hours.

[4] = TRM-201-PK-102 safety: treatment-emergent adverse events; assay type: in vivo, human
From the text: The timing and frequency of all safety assessments was listed in the schedule of events (Table 19). Safety and tolerability included monitoring and recording of AEs, clinical laboratory assessments (hematology, serum chemistry, and urinalysis), vital sign measurements, 12-lead ECG assessments, and physical examination findings. […] If clinical significance was noted, the result and reason for significance were documented. Any abnormal laboratory test results (hematology, clinical chemistry, or urinalysis) or other safety assessments (e.g., ECGs, vital sign measurements), including those that worsen from baseline, felt to be clinically significant in the medical and scientific judgment of the investigator were to be recorded as AEs or SAEs.
The investigator was responsible for reporting all AEs that were observed or reported during the study, regardless of their relationship to study drug or their clinical significance. If there was any doubt as to whether a clinical observation was an AE, the event was reported. An AE was defined as any untoward medical occurrence in a subject enrolled into this study regardless of its causal relationship to study drug. Subjects were instructed to contact the investigator at any time after enrollment if any symptoms developed. A treatment-emergent AE (TEAE) was defined as any event not present before exposure to study drug or any event already present that worsens in either intensity or frequency after exposure to study drug.
All safety data were summarized. The incidence of adverse events was presented by the MedDRA system organ class and preferred term, relationship to the test article, and severity. Descriptive statistics of clinical laboratory results and vital signs were presented, as well as summaries of changes from baseline (from the Check-in visit(s)) and of clinically notable values. All AE data were presented in a data listing TEAEs were summarized overall, as well as by severity and relationship to study drug. Serious AEs and AEs leading to discontinuation of study drug were also presented in the data listings and summarized. Actual values and changes from Baseline for clinical laboratory test results, vital sign measurements, and 12-lead ECG results were summarized at each time point using descriptive statistics (number of subjects, mean, SD, median, minimum, and maximum).

Sequence of COX-2 (P35354 18-604): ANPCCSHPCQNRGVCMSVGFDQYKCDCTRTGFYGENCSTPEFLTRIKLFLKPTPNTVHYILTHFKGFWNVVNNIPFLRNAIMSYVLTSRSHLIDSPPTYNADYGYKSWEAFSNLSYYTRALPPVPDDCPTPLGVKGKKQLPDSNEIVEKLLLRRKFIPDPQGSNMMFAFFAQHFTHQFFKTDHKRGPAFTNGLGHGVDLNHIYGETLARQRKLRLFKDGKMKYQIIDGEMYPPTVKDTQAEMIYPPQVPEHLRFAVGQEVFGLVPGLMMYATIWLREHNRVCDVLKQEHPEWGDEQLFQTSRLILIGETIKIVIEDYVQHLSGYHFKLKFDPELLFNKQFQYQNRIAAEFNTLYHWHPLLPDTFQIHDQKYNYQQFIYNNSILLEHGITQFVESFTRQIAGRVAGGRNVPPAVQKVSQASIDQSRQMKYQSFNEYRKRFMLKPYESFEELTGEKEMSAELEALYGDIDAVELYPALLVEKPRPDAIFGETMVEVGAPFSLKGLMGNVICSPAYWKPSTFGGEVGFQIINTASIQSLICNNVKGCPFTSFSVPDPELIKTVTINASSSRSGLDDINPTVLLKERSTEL

For `CS(=O)(=O)c1ccc(C2=C(c3ccccc3)C(=O)OC2)cc1` [TRM-201, 4-[4-(methylsulfonyl)phenyl]-3-phenyl-2(5H)-furanone], the “inhibition of COX-2” value (COX-2) is listed as “inhibits COX-2”, the “incidence of gastrointestinal (GI) ulcers visualized at endoscopy compared to certain non-selective NSAIDs” value ([1]; FDA 2005) is listed as “reduction” and the “risk of serious GI bleeding compared to a non-selective NSAID (naproxen)” value ([1]; following chronic use, FDA 2005) is listed as “reduce the risk”. For the same molecule, the “risk of serious adverse cardiovascular events compared to placebo” value ([1]; long-term controlled clinical trial / FDA 2005) was “increased risk”, the “Processed Sample Stability” value ([2]; at 4° C.) was 174 Hours at 4 °C and the “Stock Solution Stability in Dimethyl Sulfoxide” value ([2]; at Ambient Temperature) was 17 Hours at Ambient Temperature. For the same molecule, the “Benchtop Stability in Plasma” value ([2]; at Ambient Temperature, human plasma) was 26 Hours at Ambient Temperature, the “Stock Solution Stability in Dimethyl Sulfoxide” value ([2]; at −20° C.) was 202 Days at −20 °C and the “Freeze/Thaw Stability in Plasma” value ([2]; at −20° C. and −70° C.) was 5 Cycles at −20 °C and −70 °C. For the same molecule, the “Long-term Storage Stability in Plasma” value ([2]; at −20° C. and −70° C.) was 184 Days at −20 °C and −70 °C, the “Benchtop Stability in Whole Blood” value ([2]; in an Ice Bath when Centrifuged at 4° C. or Ambient Temperature) was 2 Hours in an Ice Bath when and the AUC(0-inf) ([3]; 12.5 mg, 101 and 102 studies (FIG. 47), read-out: arithmetic mean AUC0-∞) was 2010 ng·h/mL. For the same molecule, the Cmax ([3]; 12.5 mg, 101 and 102 studies (FIG. 47), read-out: arithmetic mean Cmax) was 151 ng/mL, the AUC(0-inf) ([3]; 12.5 mg, 101 and 102 studies (FIG. 47), read-out: geometric mean AUC0-∞) was 1880 ng·h/mL and the Cmax ([3]; 12.5 mg, 101 and 102 studies (FIG. 47), read-out: geometric mean Cmax) was 144 ng/mL. It also gave a half-life ([3]; 12.5 mg) of 12 h, an AUC(0-inf) ([3]; 17.5 mg, 101 and 102 studies (FIG. 47), read-out: arithmetic mean AUC0-∞) of 3290 ng·h/mL and a Cmax ([3]; 17.5 mg, 101 and 102 studies (FIG. 47), read-out: arithmetic mean Cmax) of 236 ng/mL. The AUC(0-inf) ([3]; 17.5 mg, 101 and 102 studies (FIG. 47), read-out: geometric mean AUC0-∞) was 3110 ng·h/mL, the Cmax ([3]; 17.5 mg, 101 and 102 studies (FIG. 47), read-out: geometric mean Cmax) was 224 ng/mL and the Tmax ([3]; 17.5 mg, read-out: median Tmax) was 2 h. For the same molecule, the half-life ([3]; 17.5 mg) was 11.7 h, the AUC(0-inf) ([3]; 20 mg, 101 and 102 studies (FIG. 47), read-out: arithmetic mean AUC0-∞) was 3750 ng·h/mL and the Cmax ([3]; 20 mg, 101 and 102 studies (FIG. 47), read-out: arithmetic mean Cmax) was 277 ng/mL. It also gave an AUC(0-inf) ([3]; 20 mg, 101 and 102 studies (FIG. 47), read-out: geometric mean AUC0-∞) of 3550 ng·h/mL, a Cmax ([3]; 20 mg, 101 and 102 studies (FIG. 47), read-out: geometric mean Cmax) of 259 ng/mL and a Tmax ([3]; 20 mg, read-out: Tmax) of 2 h. It also gave a half-life ([3]; 20 mg) of 12.2 h, an AUC(0-inf) ([3]; 25 mg, 101 and 102 studies combined (FIG. 47), read-out: arithmetic mean AUC0-∞) of 4810 ng·h/mL and a Cmax ([3]; 25 mg, 101 and 102 studies combined (FIG. 47), read-out: arithmetic mean Cmax) of 336 ng/mL. It also gave an AUC(0-inf) ([3]; 25 mg, 101 and 102 studies combined (FIG. 47), read-out: geometric mean AUC0-∞) of 4590 ng·h/mL, a Cmax ([3]; 25 mg, 101 and 102 studies combined (FIG. 47), read-out: geometric mean Cmax) of 325 ng/mL and a Tmax ([3]; 25 mg, 101 and 102 studies combined, read-out: Tmax) of 2.5 h. The half-life ([3]; 25 mg, 101 and 102 studies combined) was 11.6 h, the “TEAE in preferred term” value ([4]; 12.5 mg) was “constipation” and the “subjects who exhibited a TEAE” value ([4]; 12.5 mg) was “One”. For the same molecule, the “TEAE in preferred term” value ([4]; 25 mg) was “ear discomfort and headache”, the “subjects who exhibited a TEAE” value ([4]; 25 mg) was “two” and the “severity of all reported TEAE” value ([4]; 102 PK study) was “mild”. The “related TEAE, serious TEAE, TEAE leading to study discontinuation, or severe TEAE” value ([4]; 102 PK study, all doses) was “No subjects”, the “subjects who exhibited a TEAE, total” value ([4]; 102 PK study, all doses) was “three” and the “incidence of TEAE leading to study discontinuation” value ([4]; at any dosage) was “no incidence”. The “incidence of related TEAE” value ([4]; at any dosage) was “no incidence” and the “incidence of serious TEAE” value ([4]; at any dosage) was “no incidence”.
